Results as given in patent publication US7405036B2, “Process for reducing pathogens in a biological sample and removing a sample pellet from a sample tube” (priority 2001, dated 2008).

Assays:
[1] = tested on: cultured cells and embryos; settings: up to 1000 μg/ml; cited from earlier work
Campylobacter fetus = format: cell-based
Mycoplasma species = settings: 200 μg/ml; cited from earlier work
[2] = tested on: fresh semen of domestic bulls and gaur bulls; format: cell-based, Bos taurus, Bos gaur
[3] = tested on: bovine (Bos gaurus) sperm; test: Percoll density gradient with trypsin, viability of cryopreserved sperm

## NC[C@H]1O[C@H](O[C@H]2[C@H](O)[C@@H](O[C@H]3O[C@H](CO)[C@@H](O)[C@H](N)[C@H]3O)[C@H](N)C[C@@H]2N)[C@H](O)[C@@H](O)[C@@H]1O [kanamycin]
[1]
  toxicity to cultured cells and embryos: very little toxicity

## CCC[C@@H]1C[C@@H](C(=O)N[C@@H]([C@H]2O[C@H](SC)[C@H](O)[C@@H](O)[C@H]2O)[C@@H](C)O)N(C)C1 [lincomycin]
Campylobacter fetus
  sensitivity of C. fetus to antibiotic: sensitive

## CN[C@@H]1[C@H](O)[C@H](NC)[C@H]2O[C@@]3(O)C(=O)C[C@@H](C)O[C@H]3O[C@@H]2[C@H]1O [spectinomycin]
Campylobacter fetus
  sensitivity of C. fetus to antibiotic: intermediate

## CC[C@H]1OC(=O)C[C@@H](O)[C@H](C)[C@@H](O[C@@H]2O[C@H](C)[C@@H](O[C@H]3C[C@@](C)(O)[C@@H](O)[C@H](C)O3)[C@H](N(C)C)[C@H]2O)[C@@H](CC=O)C[C@@H](C)C(=O)/C=C/C(C)=C/[C@@H]1CO[C@@H]1O[C@H](C)[C@@H](O)[C@@H](OC)[C@H]1OC [tylosin]
Mycoplasma species
  elimination of Mycoplasma species from bovine embryos: capable of eliminating
  embryo viability: without effecting embryo viability
Campylobacter fetus
  sensitivity of C. fetus to antibiotic: intermediate

## trypsin
[2]
  acrosomal integrity: nor any significant damage
  overall motility: no significant reduction
  viability (vital staining): no reduction
[3]
  effect on sperm of increasing trypsin concentration: no detrimental effects
